Here are results for two compounds from paper PMC11217349, “Development of Nurr1 agonists from amodiaquine by scaffold hopping and fragment growing” (Communications Chemistry, 2024).

Where “and” joins values, the source holds several entries; their conditions need not be identical. Equal values may be shown once.

As usually defined, the EC50 is the concentration that produces a half-maximal response.

Data set [1] has as its target T1, human Nurr1 (hinge region and ligand binding domain) (Homo sapiens, UniProt P43354).
T1 construct: expressed in transfected cells; host or cells: HEK293T
In words: Gal4-Nurr1 hybrid reporter gene assay. Type of data set: cell-based. The procedure:
(§1) Nurr1 modulation was determined in a Gal4 hybrid reporter gene assay in HEK293T cells (German Collection of Microorganisms and Cell Culture GmbH, DSMZ) using pFR-Luc (Stratagene, La Jolla, CA, USA; reporter), pRL-SV40 (Promega, Madison, WI, USA; internal control) and pFA-CMV-hNurr1-LBD[14], coding for the hinge region and ligand binding domain of the canonical isoform of human Nurr1. […] After 24 h, the medium was changed to Opti-MEM without supplements, and cells were transiently transfected using Lipofectamine LTX reagent (Invitrogen, Carlsbad, CA, USA) according to the manufacturer’s protocol. Five hours after transfection, cells were incubated with the test compounds in Opti-MEM supplemented with penicillin (100 U/mL), streptomycin (100 μg/mL), and 0.1% DMSO for 16 h before luciferase activity was measured using the Dual-Glo Luciferase Assay System (Promega) according to the manufacturer’s protocol on a Tecan Spark luminometer (Tecan Deutschland GmbH, Crailsheim, Germany). Firefly luminescence was divided by Renilla luminescence and multiplied by 1000 resulting in relative light units (RLU) to normalize for transfection efficiency and cell growth. Fold activation was obtained by dividing the mean RLU of the test compound by the mean RLU of the untreated control. All samples were tested in at least three biologically independent experiments in duplicates. For dose-response curve fitting and calculation of EC50 values, the equation “[Agonist] vs. response -- Variable slope (four parameters)” was used in GraphPad Prism (version 7.00, GraphPad Software, La Jolla, CA, USA). Selectivity profiling was performed with identical procedures using pFA-CMV-Nur77-LBD[14], pFA-CMV-NOR-1-LBD[14], pFA-CMV-THRα-LBD[51], pFA-CMV-RARα-LBD[52], pFA-CMV-PPARα-LBD[53], pFA-CMV-PPARγ-LBD[53], pFA-CMV-PPARδ-LBD[53], pFA-CMV-LXRα-LBD[54], pFA-CMV-FXR-LBD[55] and pFA-CMV-hRXRα-LBD[56].
(A reporter such as luciferase makes a cellular process visible.)

A further data set has as its target T2, Nurr1 LBD (Homo sapiens, UniProt P43354).
T2 construct: Nurr1 LBD protein (5–30 µM, expressed as described previously[21]); made in house
In words: Isothermal titration calorimetry (ITC). Type of data set: binding. As to conditions: 25 °C. The procedure:
ITC experiments were conducted on an Affinity ITC instrument (TA Instruments, New Castle, DE) at 25 °C with a stirring rate of 75 rpm. Nurr1 LBD protein (5–30 µM, expressed as described previously[21]) in buffer (20 mM Tris pH 7.5, 100 mM NaCl, 5% glycerol) containing 1–4% DMSO was titrated with the test compounds (30–150 μM in the same buffer containing 1-4% DMSO) in 26 injections (1 × 1 µL, 25 × 3-4 μL) with an injection interval of 120-150 s. As control experiments, the test compounds were titrated to the buffer, and the buffer was titrated to the Nurr1 LBD protein under otherwise identical conditions. Results were analyzed using NanoAnalyze software (version 3.11.0, TA Instruments, New Castle, DE) with independent binding models.
For orientation: Isothermal titration calorimetry measures the heat released or taken up as one component is titrated into another.

A further data set has as its target T3, Nur77 (Homo sapiens, UniProt P22736).
T3 construct: chimeric receptors composed of the Gal4-DBD and the hinge region and LBD; expressed in transfected cells; host or cells: HEK293T
In words: Gal4-Nur77 hybrid reporter gene assay. Type of data set: cell-based. Particulars: 10 nM to 3 µM. How it is done: as §1

The target in another data set is T4, NOR-1 (Homo sapiens, UniProt Q92570).
T4 construct: chimeric receptors composed of the Gal4-DBD and the hinge region and LBD; expressed in transfected cells; host or cells: HEK293T
T4 sequence (Q92570 394-623 limits assumed): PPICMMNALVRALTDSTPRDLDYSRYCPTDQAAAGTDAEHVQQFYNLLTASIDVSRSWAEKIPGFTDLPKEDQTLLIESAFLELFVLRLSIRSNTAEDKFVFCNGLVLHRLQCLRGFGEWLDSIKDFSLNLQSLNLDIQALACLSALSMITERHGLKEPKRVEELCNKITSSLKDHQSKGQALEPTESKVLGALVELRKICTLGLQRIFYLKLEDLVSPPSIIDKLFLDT
Briefly: Gal4-NOR-1 hybrid reporter gene assay. Type of data set: cell-based. As to conditions: 10 nM to 3 µM. The procedure: as §1

Data set [2] concerns the target T5, human full-length Nurr1 monomer (NBRE) (Homo sapiens, UniProt P43354).
T5 construct: The full-length human nuclear receptor Nurr1 (pcDNA3.1-hNurr1-NE; Addgene plasmid #102363); host or cells: HEK293T
In words: Full-length Nurr1 reporter gene assay (NBRE). Type of data set: cell-based. Particulars: 10 nM to 3 µM. From the text: (§2) Activation of full-length human Nurr1 was studied in transiently transfected HEK293T cells using the reporter plasmids pFR-Luc-NBRE[14], pFR-Luc-POMC[14] or pFR-Luc-DR5[14] each containing one copy of the respective human Nurr1 response element NBRE Nl3, NurRE, or DR5. The full-length human nuclear receptor Nurr1 (pcDNA3.1-hNurr1-NE; Addgene plasmid #102363) and, for DR5, RXRα (pSG5-hRXR)[57] were overexpressed. pRL-SV40 (Promega) was used for the normalization of transfection efficacy and to observe test compound toxicity. […] After 24 h, the medium was changed to Opti-MEM without supplements, and cells were transiently transfected using Lipofectamine LTX reagent (Invitrogen) according to the manufacturer’s protocol. Five hours after transfection, cells were incubated with the test compounds in Opti-MEM supplemented with penicillin (100 U/mL), streptomycin (100 μg/mL) and 0.1% DMSO for 16 h before luciferase activity was measured using the Dual-Glo Luciferase Assay System (Promega) according to the manufacturer’s protocol on a Tecan Spark luminometer (Tecan Deutschland GmbH). Firefly luminescence was divided by Renilla luminescence and multiplied by 1000 resulting in relative light units (RLU) to normalize for transfection efficiency and cell growth. Fold activation was obtained by dividing the mean RLU of the test compound by the mean RLU of the untreated control. All samples were tested in at least three biologically independent experiments in duplicates. For dose-response curve fitting and calculation of EC50 values, the equation “[Agonist] vs. response -- Variable slope (four parameters)” was used in GraphPad Prism (version 7.00, GraphPad Software).

The target in data set [3] is T6, human full-length Nurr1 homodimer (NurRE) (Homo sapiens, UniProt P43354).
T6 construct: The full-length human nuclear receptor Nurr1 (pcDNA3.1-hNurr1-NE; Addgene plasmid #102363); host or cells: HEK293T
T6 sequence (P43354 whole entry): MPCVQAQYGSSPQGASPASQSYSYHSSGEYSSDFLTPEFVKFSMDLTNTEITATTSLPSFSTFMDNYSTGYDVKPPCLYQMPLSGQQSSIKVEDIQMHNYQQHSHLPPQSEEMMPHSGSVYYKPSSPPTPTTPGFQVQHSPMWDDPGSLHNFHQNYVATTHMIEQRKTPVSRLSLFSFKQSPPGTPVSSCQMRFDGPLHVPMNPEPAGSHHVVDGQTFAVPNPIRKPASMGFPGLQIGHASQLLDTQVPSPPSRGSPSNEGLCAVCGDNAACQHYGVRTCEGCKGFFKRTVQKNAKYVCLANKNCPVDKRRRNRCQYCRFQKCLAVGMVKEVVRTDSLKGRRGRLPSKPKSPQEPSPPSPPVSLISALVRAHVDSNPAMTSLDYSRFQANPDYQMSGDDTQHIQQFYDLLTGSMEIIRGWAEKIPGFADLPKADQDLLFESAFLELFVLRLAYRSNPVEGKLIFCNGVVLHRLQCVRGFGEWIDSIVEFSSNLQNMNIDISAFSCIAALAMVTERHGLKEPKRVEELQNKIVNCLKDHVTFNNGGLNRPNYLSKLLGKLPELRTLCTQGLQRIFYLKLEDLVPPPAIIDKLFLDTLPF
Briefly: Full-length Nurr1 reporter gene assay (NurRE). Type of data set: cell-based. Particulars: 10 nM to 3 µM.
Description: as §2

The target in data set [4] is T7, Nurr1-RXR heterodimer (DR5) (Homo sapiens, UniProt P43354).
T7 construct: The full-length human nuclear receptor Nurr1 (pcDNA3.1-hNurr1-NE; Addgene plasmid #102363); host or cells: HEK293T
T7 sequence (P43354 whole entry): as above
T7 sequence (P19793 whole entry partner): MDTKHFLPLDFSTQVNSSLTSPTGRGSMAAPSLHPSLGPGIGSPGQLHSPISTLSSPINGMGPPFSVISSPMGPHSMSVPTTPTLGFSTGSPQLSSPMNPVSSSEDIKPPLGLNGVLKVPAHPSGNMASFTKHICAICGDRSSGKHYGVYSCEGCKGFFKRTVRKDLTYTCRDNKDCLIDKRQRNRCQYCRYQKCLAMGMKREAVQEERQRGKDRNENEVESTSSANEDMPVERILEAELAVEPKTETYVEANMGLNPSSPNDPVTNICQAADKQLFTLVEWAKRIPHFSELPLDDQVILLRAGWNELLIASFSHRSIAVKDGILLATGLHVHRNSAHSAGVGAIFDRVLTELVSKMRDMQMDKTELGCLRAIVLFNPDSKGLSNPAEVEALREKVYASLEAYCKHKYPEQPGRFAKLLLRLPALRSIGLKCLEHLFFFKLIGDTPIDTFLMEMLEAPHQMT
Briefly: Full-length Nurr1 reporter gene assay (DR5). Type of data set: cell-based. Particulars: 10 nM to 3 µM. The procedure:
Activation of full-length human Nurr1 was studied in transiently transfected HEK293T cells using the reporter plasmids pFR-Luc-NBRE[14], pFR-Luc-POMC[14] or pFR-Luc-DR5[14] each containing one copy of the respective human Nurr1 response element NBRE Nl3, NurRE, or DR5. […] After 24 h, the medium was changed to Opti-MEM without supplements, and cells were transiently transfected using Lipofectamine LTX reagent (Invitrogen) according to the manufacturer’s protocol. Five hours after transfection, cells were incubated with the test compounds in Opti-MEM supplemented with penicillin (100 U/mL), streptomycin (100 μg/mL) and 0.1% DMSO for 16 h before luciferase activity was measured using the Dual-Glo Luciferase Assay System (Promega) according to the manufacturer’s protocol on a Tecan Spark luminometer (Tecan Deutschland GmbH). Firefly luminescence was divided by Renilla luminescence and multiplied by 1000 resulting in relative light units (RLU) to normalize for transfection efficiency and cell growth. Fold activation was obtained by dividing the mean RLU of the test compound by the mean RLU of the untreated control. All samples were tested in at least three biologically independent experiments in duplicates. For dose-response curve fitting and calculation of EC50 values, the equation “[Agonist] vs. response -- Variable slope (four parameters)” was used in GraphPad Prism (version 7.00, GraphPad Software).

In data set [5] the test system is full-length human Nurr1 (NBRE). Further details: method as in earlier work. As to conditions: cited from earlier work.
In a further data set the test system is N27 rat neurons. Briefly: WST-8 cytotoxicity assay, N27. Type of data set: cell-based. How it is done: (§3) Each sample was prepared in four biologically independent repeats. After incubation for 24 h, the medium was refreshed and 10% water-soluble tetrazolinum salt (Cell Counting Kit-8, MedChemExpress) was added to assess metabolic activity. After 4 h, absorbance was measured at 450 nm using a Tecan Spark Cyto instrument (Tecan).
For orientation: Tetrazolium dyes change colour on reduction, which living cells bring about.

In a further data set the test system is HEK293T cells. Briefly: WST-8 cytotoxicity assay, HEK293T. As to conditions: for rel. absorbance (450 nm): HEK293T, WST-8, vs DMSO ctrl. Type of data set: cell-based, human. How it is done:
as §3

The test system of a further data set is Nurr1. Further details: method as in PMID 26124091. Particulars: read-out: EC50 (Nurr1 agonism); cited from earlier work.

T1 sequence (P43354 360-595 limits assumed): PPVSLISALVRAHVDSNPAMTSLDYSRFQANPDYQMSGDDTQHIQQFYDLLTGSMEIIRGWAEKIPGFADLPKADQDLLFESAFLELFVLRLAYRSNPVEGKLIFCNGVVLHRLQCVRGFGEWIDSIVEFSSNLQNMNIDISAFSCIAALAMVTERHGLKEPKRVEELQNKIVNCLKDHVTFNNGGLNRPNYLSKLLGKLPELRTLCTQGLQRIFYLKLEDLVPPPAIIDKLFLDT
T5 sequence (P43354 whole entry): as the sequence (P43354 whole entry) above
T2 sequence (P43354 360-595 limits assumed): as the sequence (P43354 360-595 limits assumed) above
T3 sequence (P22736 360-595 limits assumed): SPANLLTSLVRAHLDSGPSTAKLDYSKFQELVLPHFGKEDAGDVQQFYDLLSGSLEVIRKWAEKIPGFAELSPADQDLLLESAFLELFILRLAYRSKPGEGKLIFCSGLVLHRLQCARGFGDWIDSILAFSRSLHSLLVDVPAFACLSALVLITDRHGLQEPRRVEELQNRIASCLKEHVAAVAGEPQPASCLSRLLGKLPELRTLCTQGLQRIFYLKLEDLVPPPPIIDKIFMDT

Regarding `CC(C)(O)c1cccc(-c2ccc3nc(-c4ccc(Cl)cc4)cn3c2)c1` [SA00025, reference compound], the “activation of Nurr1” value in [1] (Gal4 hybrid reporter, 10 nM to 3 µM) was “No activation”. The “cytotoxicity in reporter gene assays” value in data set [1] (concentrations higher than 3 µM, drop in renilla luciferase control, HEK293T) is “considerably cytotoxic”. In addition, the “Kd (Nurr1 LBD)” value at Nurr1 LBD is reported as “potential weak binding”. The “activation of Nur77” value at Nur77 is on record as “No activation”. Also, on NOR-1, the “activation of NOR1” value is given as “No activation”. Further, the “activation of full-length Nurr1 on NBRE” value in data set [2] was “no effect and no”. In addition, the “activation of full-length Nurr1 on NurRE” value in data set [3] was “no effect and no”. For the same compound, the “activation of full-length Nurr1 on DR5” value in [4] is “no effect and no”. Also, in [5], the concentration giving a half-maximal response (EC50) was 0.217 µM.
Consider `CCN(CC)Cc1cc(Nc2ccnc3cc(Cl)ccc23)ccc1O` [AQ, amodiaquine], for which the “rel. absorbance (450 nm)” value in the data set with N27 rat neurons (N27, 10 µM, WST-8, vs DMSO ctrl) was 37% and 39% and 40%; with HEK293T cells (10 µM), 75% and 70%; in the data set with HEK293T cells (30 µM) it was 47%. In addition, the “rel. absorbance (450 nm) / remaining metabolic activity” value in the data set with N27 rat neurons (N27, 30 µM, WST-8, vs DMSO ctrl) is 21% and 22% and 23%. Further, the “toxicity (WST-8)” value is given as “toxic” in the data set on N27 rat neurons (N27 rat neurons, 24 h) and “toxic” with HEK293T cells (HEK293T cells, 24 h). For the same compound, in the data set with Nurr1, the EC50 is ~20 µM.
